Data as given in patent publication US20110236822A1, “METHOD OF TREATING SEASONED DEVELOPER SOLUTION” (priority 2010, published 2011).
Like-named read-outs stand apart in the source and are kept apart here.

Legend:
aquatic life = conditions: from MSDS sheets; cited from earlier work
[1] = Treatment of IR dye with oxidative and reducing reagents to degrade the dye (TABLE I); type: physicochemical
humans = conditions: from MSDS sheets; cited from earlier work
[2] = Treatment of seasoned developer solution with Chlorox bleach solution, residual dye by FTIR; type: physicochemical; conditions: Kodak 955 Developer seasoned, 15 ml bleach diluted to 6%, 2000 rpm
Procedure: An imageable layer coating formulation was prepared with the components in TABLE II below in a solvent mixture of methyl ethyl ketone:water:isopropyl alcohol (70:20:10 weight ratio). The formulation was coated onto a sulfuric acid anodized aluminum substrate and dried in a conveyor oven at 100° C. for 1 minute to provide an imageable layer with a dry coating weight of 1.60 g/m^2. The resulting printing plate precursors were imaged at 110 mJ/cm^2 and 11 Watt using a Kodak 3244x platesetter. The imaged precursors (approx. 11 m^2) were manually developed in 1 liter of Kodak 955 Developer to produce seasoned developer solution (3).
Samples (each 50 ml) of seasoned developer solution (3) were diluted with 150 ml of water and treated with 15 ml of Chlorox® bleach solution diluted to 6% by drop wise addition while stirring at 2000 rpm. The stirring continued for another 15 minutes after the addition. The green color of the seasoned developer solution samples disappeared, forming pale yellow, slightly turbid solutions. […] The extract was concentrated about 50 times and analyzed by FTIR. […]
An imageable layer coating formulation was prepared using the components of TABLE II above except that the IR dye was S0507 from Few Chemicals GmbH. […] The extract was concentrated 50 times by evaporation under nitrogen flow and spotted onto a sodium chloride disk, dried, and analyzed by FTIR. […]

[3] = Treatment of seasoned developer solution with Chlorox bleach solution, residual dye by LC-MS; type: physicochemical; conditions: Kodak 1080 Developer seasoned, diluted, 8 ml bleach diluted to 6%, 6000 rpm
Procedure: In this example, seasoned developer solutions containing IR dye 66e were treated with commercial Chlorox® bleach solution and the degradation products were examined by LC-MS. The seasoned developer solutions were prepared in the lab after development of imaged commercially available, negative-working printing plate precursors containing IR dye 66e with Kodak 1080 Developer under conditions that account for real-life situation at the end of the processor cycle when the seasoned developer solution is being changed. The following calculation of the coating concentration in the seasoned developer solution at the end of the processing cycle takes into account that a Mercury 1035 processor will have a cycle of 3150 m^2 plates/9 gal (34 liters) of developer solution that is the tank capacity. […]
To account for the lower limit, solution C was prepared by dissolving 1.1 m^2 of printing plate coating in 100 ml of developer solution. […] The precipitate (2) and the supernatant liquid (2) were analyzed by LC-MS for the IR dye 66e using the equipment and method described above in Comparative Example 3.
Precipitate (2) was extracted in acetonitrile:isopropanol at 2.5 mg/ml. […] This reference solution (standard) was analyzed to determine the sensitivity of the instrument. […]

[4] = Treatment of IR dye 66e in methanol with Chlorox bleach solution (qualitative, titration, LC-MS); type: physicochemical
[5] = Attempt to precipitate the anionic chromophore of IR Dye I as insoluble salts; type: physicochemical; conditions: IR Dye I 0.3% in methanol; 3% solution of compound in water
[6] = Attempt to precipitate the cationic chromophore of IR dye 66e as insoluble salts with organic acids; type: physicochemical; conditions: IR dye 66e 0.3% in methanol; aqueous organic acid at 3% concentration
[7] = 0.3% IR dye 66e in methanol, 23° C.
[8] = after titration with diluted bleach

N.N.O=S(=O)(O)OOS(=O)(=O)O [Ammonium persulfate]
toxicity to aquatic life (aquatic life): toxic to aquatic life
Change Noticed [1, 7]: Dye bleached pink

O=[N+]([O-])[O-].O=[N+]([O-])[O-].O=[N+]([O-])[O-].O=[N+]([O-])[O-].O=[N+]([O-])[O-].O=[N+]([O-])[O-].[Ce+4].[NH4+].[NH4+] [Ceric ammonium nitrate]
Change Noticed [1]: Dye bleached pink

O=C([O-])c1ccccc1.[Cu+] [Cu(I) benzoate]
Change Noticed [1]: Dye bleached pink

[Cl][Fe]([Cl])[Cl] [Ferric chloride]
toxicity to aquatic life (aquatic life): toxic to aquatic life
Change Noticed [1, 7]: Black

[Cl][Fe][Cl] [Ferrous chloride]
toxicity to aquatic life (aquatic life): toxic to aquatic life
Change Noticed [1, 7]: Black

OO [Hydrogen peroxide]
Change Noticed ([1]; 0.3% IR dye 66e in methanol, NaOH, room temperature): Pink precipitate
Change Noticed ([1]; 0.3% IR dye 66e in methanol, Sulfuric acid, 1%, 23° C.): Black
Change Noticed ([1]; 0.3% IR dye 66e in methanol, Sulfuric acid, 1%, Heat): Dye bleached pink
carcinogenic and mutagenic potential for humans (humans): potential carcinogenic and mutagenic for humans

CC(=O)OCCN1/C(=C/C=C2\CCC(/C=C/C3=[N+](CCOC(C)=O)c4ccc5cc(S(=O)(=O)O)ccc5c4C3(C)C)=C2N(c2ccccc2)c2ccccc2)C(C)(C)c2c1ccc1cc(S(=O)(=O)[O-])ccc21 [IR Dye I]
residual dye in extract of sediment (3) or supernatant liquid (3) by FTIR [2]: No residual IR Dye I was found

CN1/C(=C/C=C2\CCCC(/C=C/C3=[N+](C)c4ccccc4C3(C)C)=C2Sc2ccccc2)C(C)(C)c2ccccc21 [IR dye 66e]
residual dye in supernatant liquid (2) by LC-MS [3]: No trace of IR dye 66e was found
change of dye solution on bleach treatment ([4]; 0.3% in methanol, liberal amount of Chlorox bleach solution (3.6% sodium hypochlorite), room temperature, shaking): color change from green to light yellow and a yellow precipitate was formed
change of dye solution, incomplete degradation ([4]; 20 ml solution B titrated with 4.8 ml of 5% bleach (insufficient hypochlorite)): became reddish-brown
residual dye in filtrate (1) by LC-MS [4, 8]: did not contain IR dye 66e
residual dye in precipitate (1) by LC-MS [4, 8]: gave a signal for the IR dye 66e
original dye co-precipitated with its degradation products ([4]; estimated, precipitate (1)): about 1%
undiluted Chlorox bleach solution needed to bleach 1 mg of dye ([4]; titration, per 1 mg dye, magnetic stirrer): 0.007463 mL
Chlorox bleach solution needed for degradation of 1 g of dye ([4]; titration, per 1 g dye): 7.46 mL

O=C1CCC(=O)N1Br [N-Bromo-succinimide]
Change Noticed [1]: Dye bleached pink

O=S([O-])[O-].[Na+].[Na+] [Na sulfite]
Change Noticed [1]: Some bleaching,

[O-][Cl+3]([O-])([O-])O [Perchloric acid]
Change Noticed [1]: Dye bleached pink

O=S(=O)([O-])OOS(=O)(=O)[O-].[K+].[K+] [Potassium persulfate]
Change Noticed [1]: Brown

O=S([O-])O.[Na+] [Sodium hydrogen sulfite]
Change Noticed [1]: No reaction

O=S([O-])S(=O)(=O)[O-].[Na+].[Na+] [Sodium metabisulfite]
Change Noticed ([1]; 0.3% IR dye 66e in methanol, Heat): No reaction

CCCCCCCCCCCCCCCCCC[N+](C)(C)Cc1ccccc1.[Cl-] [benzyl stearyl dimethyl ammonium chloride]
precipitation of IR Dye I [5]: None of these compounds precipitated IR Dye I

C[N+](C)(C)Cc1ccccc1.[Cl-] [benzyl trimethyl ammonium chloride]
precipitation of IR Dye I [5]: None of these compounds precipitated IR Dye I

naphthalene sulfonic acid
precipitation of IR dye 66e [6]: None of these organic acids were useful to precipitate the IR dye 66e
